Experimental findings from patent US20040186098A1 (Amgen Inc., priority 1997, published 2004) are described below.

The subject of one experiment is outer hair cells (OHC). As to the kind of experiment: Intramiddle ear neomycin-induced ototoxicity, compound given into the middle ear, outer hair cell loss. Format: in vivo, guinea pig. To be noted: for hair cells (protected) after neomycin: 5 mg neomycin, 14 days after second surgery. As for the experimental part: Twenty guinea pigs used in this study were divided into two groups: 10 animals received 10 ng and 10 received 1 ng of the sensorineurotrophic compound.
Sensorineurotrophic compound stock A: A stock solution of sensorineurotrophic compound at 1 mg/10 ml in 100% ethanol was prepared and then diluted and mixed in Intralipid at 10 ng/100 μl.
Sensorineurotrophic compound stock B: A stock solution of sensorineurotrophic compound at 1 mg/100 ml in 100% ethanol was prepared and then diluted and mixed in 20% Intralipid at 1 ng/100 μl.
Animals were anesthetized with an intramuscular injection of a mixture of ketamine (80 mg/kg) and xylazine (4 mg/kg). Through a post-auricular incision, the right bulla was identified. A hole was drilled to open the middle ear cavity (care was taken not to injure the tympanic annulus or ossicles). A piece of gelfoam (˜2 mm^3) soaked with the sensorineurotrophic compound solution was inserted into the round window niche. The remaining sensorineurotrophic compound solution (˜100 μl) then was injected into the middle ear cavity. In the 10 ng dose group, 100 μl of sensorineurotrophic compound stock A was administered; and in the 1 ng dose group, 100 μl of sensorineurotrophic compound stock B was administered to the middle ear cavity. The hole was covered with a piece of clear plastic sheet which was stuck on the skull with a superglue. The incision was closed with clips. The same procedure was performed at the left bulla, but 100 μl of vehicle solution instead of sensorineurotrophic compound solution was administered. The animals were maintained in the prone position until they woke up to ensure filling of the middle ear cavity.
After two days, the animals received a second middle ear administration of sensorineurotrophic compound or vehicle together with neomycin. Solutions were prepared for the two groups of animals as follows:
Solution A: Neomycin was dissolved in sensorineurotrophic compound stock A described above. The final concentration of neomycin was 5 mg and the sensorineurotrophic compound concentration was 10 ng in a 100 μl vehicle solution.
Solution B: Neomycin was dissolved in sensorineurotrophic compound stock B described above. The final concentration of neomycin was 5 mg and the concentration of sensorineurotrophic compound was 1 ng in a 100 μl vehicle solution.
Solution C: Neomycin was dissolved in 20% Intralipid to a final concentration of 5 mg in 100 μl vehicle.
The plastic cover sheet on the bulla window was removed and the middle ear cavity was exposed. The old sensorineurotrophic compound or vehicle was sucked off and the old gelfoam was removed from the round window niche. A piece of gelfoam with fresh stock solution containing sensorineurotrophic compound and neomycin was administered to the round window niche, and the remaining solution (˜100 μl, solution A for the 10 ng dose group and solution B for the 1 ng dose group, respectively) was injected into the middle ear cavity of the right bulla.
Solution C (100 μl) was administered to the left ear for both groups in the same way.
Fourteen days after the second surgery, animals were perfused transcardially with a PBS flush followed by a fixative of 4% paraformaldehyde in 0.1M PBS. Immediately following the perfusion, the temporal bone was removed from the head. The bulla was opened and the cochlea was exposed. The apex was opened and the membrane of the round and oval windows was punched. The fixative solution was gently infused into the perilymphatic space through the apex hole and then allowed to flow out from windows. Then the cochleae were post-fixed in the same fixative solution for at least one day.
To identify and count hair cells in the organ of Corti, a direct immunostaining method was used to label the actin present naturally in the stereocilia bundles of the hair cells. The cochlea was dissected and the perilymphatic space was fully exposed. […]

A further experiment deals with hair cells. As to the kind of experiment: Intramiddle ear neomycin-induced ototoxicity, compound given systemically (subcutaneous), hair cell loss. Type of experiment: in vivo, guinea pig. Conditions: 10 mg s.c. at day 0, 2 and 7. The procedure: Twenty guinea pigs were treated either with sensorineurotrophic compound or vehicle prior to administration of the ototoxin. Ten of the guinea pigs were subcutaneously injected with freshly made sensorineurotrophic compound solution. On the day of injection, 100 mg of the sensorineurotrophic compound was dissolved in 1 ml of ethanol, then 20% of the Intralipids solution was added to make a final volume of 3 ml. The final sensorineurotrophic compound concentration was 10 mg/0.3 ml. Each animal was subcutaneously injected with 0.3 ml of the sensorineurotrophic compound solution at day 0, day 2 and day 7. Another 10 animals were subcutaneously injected with 0.3 ml of the vehicle (20% Intralipids), individually at day 0, day 2 and day 7.
At day 2, guinea pigs used in this study were administered neomycin or neomycin vehicle in the middle ear.
Animals were anesthetized with intramuscular injection of a mixture of ketamine (80 mg/kg) and xylazine (4 mg/kg). Through a post-auricular incision, the right bulla was identified. A hole was drilled to open the middle ear cavity (care was taken not to injure the tympanic annulus or ossicles). A piece of gelfoam (˜2 mm^3) was soaked with neomycin solution (fresh made at a concentration of 50 mg/ml) and was inserted into the round window niche. The remaining neomycin solution (˜100 μl) was then injected into the middle ear cavity. […]

Each structure is given as a SMILES string.

Regarding `CCC(C)(C)C(=O)C(=O)N1CCC[C@H]1C(=O)OCCCc1cccnc1` [Compound I], the “hair cells (protected) after neomycin” value in the experiment on outer hair cells (OHC) (1 ng in the middle ear) is approximately 70%; in the experiment on outer hair cells (OHC) (10 ng in the middle ear), “around 75%”. The “Neomycin-induced OHC Loss (%), Right (Treated), mean ± SEM” value in the experiment with outer hair cells (OHC) (1 ng intramiddle ear, turn-1, n = 7) is 8.85 ± 1.47%; with outer hair cells (OHC) (1 ng intramiddle ear, turn-2, n = 7), 4.01 ± 0.53%; in the experiment with outer hair cells (OHC) (1 ng intramiddle ear, turn-3, n = 7) it was 0.92 ± 0.10%; in the experiment on outer hair cells (OHC) (1 ng intramiddle ear, turn-4, n = 7), 1.67 ± 1.25%; in the experiment on outer hair cells (OHC) (1 ng intramiddle ear, whole cochlea, n = 7), 3.86 ± 0.37%; with outer hair cells (OHC) (10 ng intramiddle ear, turn-1, n = 9), 15.47 ± 6.05%. Moreover, the “Neomycin-induced OHC Loss (%), Right (Treated), mean ± SEM” value amounted to 13.93 ± 10.75% in the experiment with outer hair cells (OHC) (10 ng intramiddle ear, turn-2, n = 9); 11.64 ± 10.85% in the experiment on outer hair cells (OHC) (10 ng intramiddle ear, turn-3, n = 9); 4.69 ± 2.85% in the experiment on outer hair cells (OHC) (10 ng intramiddle ear, turn-4, n = 9); 11.44 ± 7.27% with outer hair cells (OHC) (10 ng intramiddle ear, whole cochlea, n = 9). Besides, the “protection of hair cells against ototoxicity, in words” value with outer hair cells (OHC) (10 ng or 1 ng in the middle ear, neomycin) is given as “protect completely hair cells against ototoxicity”. In addition, the “loss of hair cells, in words (FIGS. 4A and 4B)” value with outer hair cells (OHC) (all animals at 1 ng, all but one at 10 ng, neomycin and vehicle: almost complete loss) was “very minimal loss of hair cells”. The “difference in the loss of hair cells between vehicle and treated animals” value in the experiment on hair cells (5 mg neomycin middle ear at day 2, day 16) is recorded as approximately 31%. In addition, the hair cell loss entry with hair cells (5 mg neomycin middle ear, vehicle animals about 75%) was “about 45%”.
